Laboratory results taken from ChEMBL document CHEMBL1131881 (Bioorg Med Chem Lett, 1999).

Target: Sodium-dependent dopamine transporter (Homo sapiens, UniProt Q01959)
Test: Binding affinity towards dopamine transporter (DAT)

Chain of Sodium-dependent dopamine transporter (Q01959 whole entry): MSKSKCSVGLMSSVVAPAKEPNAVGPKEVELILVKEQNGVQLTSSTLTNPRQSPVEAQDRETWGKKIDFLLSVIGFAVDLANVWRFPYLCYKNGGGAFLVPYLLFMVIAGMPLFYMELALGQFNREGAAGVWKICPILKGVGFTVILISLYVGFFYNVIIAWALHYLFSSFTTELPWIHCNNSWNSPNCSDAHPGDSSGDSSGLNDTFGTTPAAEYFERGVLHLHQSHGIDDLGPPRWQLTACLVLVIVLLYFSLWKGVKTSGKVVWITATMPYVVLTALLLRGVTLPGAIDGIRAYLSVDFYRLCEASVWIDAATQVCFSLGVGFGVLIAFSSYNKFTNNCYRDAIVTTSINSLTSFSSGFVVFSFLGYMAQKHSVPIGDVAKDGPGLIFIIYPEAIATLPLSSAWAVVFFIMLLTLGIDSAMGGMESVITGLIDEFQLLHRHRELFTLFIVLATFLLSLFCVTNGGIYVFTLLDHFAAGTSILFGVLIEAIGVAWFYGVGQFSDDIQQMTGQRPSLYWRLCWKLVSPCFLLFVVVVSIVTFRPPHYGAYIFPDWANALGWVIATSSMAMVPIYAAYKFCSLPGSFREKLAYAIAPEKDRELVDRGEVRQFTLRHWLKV

For `CCC[C@@H]1CN(C)CC[C@@H]1c1ccc(Cl)cc1`, the IC50 was 3 nM.
